A short description of data set [1]: pH monitoring of cross-linking reactions. The class given is physicochemical. The protocol: (§1) Twenty fresh porcine aortic cusps were added to separate 100 milliliter aliquots of each of the four solutions (i.e. using a total of eighty cusps). The cusps and solutions were maintained with constant shaking at room temperature for up to ten days without changing the solution. At selected times, a small section was removed from each of the cusps in each of the cross-linking reactions and analyzed by differential scanning calorimetry to determine the thermal shrinkage temperature (Ts). Cross-linking reactions were considered complete when the value of Ts remained substantially constant over time. Cusps treated in this manner were maintained in the cross-linking solution for more than 20 days prior to use in subsequent experiments.
(§2) The tissues and solutions were maintained at room temperature with constant shaking for up to seven days, during which time the pH of each cross-linking reaction was monitored. For selected reactions, the reaction mixture solution was replaced every 24 hours with a freshly-prepared 100 milliliter aliquot of 0.1 molar TGA in 0.10 molar HEPES buffer at pH 7.4. At selected times, a small section was removed from each tissue in each of the stabilization reaction mixtures, and the section was analyzed by differential scanning calorimetry to determine the thermal shrinkage temperature (Ts). […]

A further data set concerns porcine aortic cusps. Briefly: Subdermal calcification study in rats, porcine aortic cusps. The class given is in vivo. The protocol:
In a first method of cross-linking bioprosthetic tissue, four separate cross-linking solutions were prepared:
1) 0.1 molar TGA in 0.05 molar HEPES buffer at pH 7.4,
2) 0.1 molar TGA in 0.05 boric acid-borax buffer at pH 9.0,
3) 0.1 molar Denacol 521™ (Nagase Chemical Co., Japan) in 0.05 molar HEPES buffer at pH 7.4, and
4) 0.05 molar HEPES buffer (pH 7.4) containing 0.6% (v/v) glutaraldehyde.
as §1, with “experiments. […]” for “experiments.”
Subdermal calcification studies were performed in rats using tissues treated and stored as described above. Following treatment by either of the two methods described above, the tissues were rinsed thoroughly with excess sterile saline solution immediately prior to implantation. Tissues were implanted subdermally (1 tissue sample per rat, 10 rats per treatment method). Twenty-one days following implantation, the tissues were recovered and their calcium content was measured in samples taken from each tissue.

The subject of data set [2] is porcine aortic wall segments. Briefly: Subdermal calcification study in rats, porcine aortic wall. It counts as in vivo. The following applies: Group III: TGA second method, then treated with and stored in formalin-containing solution, 21 days, average ± standard error. The protocol:
(§3) In a second method of cross-linking bioprosthetic tissue, separate 100 milliliter aliquots of […] TGA in 0.10 molar HEPES buffer at pH 7.4 were prepared. The following were added to individual aliquots of this solution.
(§4) The tissues and solutions were maintained at room temperature with constant shaking for up to seven days, during which time the pH of each cross-linking reaction was monitored. For selected reactions, the reaction mixture solution was replaced every 24 hours with a freshly-prepared 100 milliliter aliquot of 0.1 molar TGA in 0.10 molar HEPES buffer at pH 7.4. At selected times, a small section was removed from each tissue in each of the stabilization reaction mixtures, and the section was analyzed by differential scanning calorimetry to determine the thermal shrinkage temperature (Ts). After seven days of reaction, one group of each of the tissues was transferred to 100 milliliters of 0.05 molar phosphate buffer containing 4% (v/v) formalin and stored in this solution prior to use in subsequent experiments.
(§5) Subdermal calcification studies were performed in rats using tissues treated and stored as described above. […] Twenty-one days following implantation, the tissues were recovered and their calcium content was measured in samples taken from each tissue.

A short description of data set [3]: Thermal shrinkage temperature (Ts) by differential scanning calorimetry. The class given is physicochemical, porcine. Particulars: cusp tissue, 0.1 molar TGA and 0.1 molar HEPES, solution replenished every 24 hours, seven days. The protocol: as §1, §2
A general note: Differential scanning calorimetry records heat flow against a reference as temperature is scanned.

Another data set deals with bovine pericardium. Briefly: Subdermal calcification study in rats, bovine pericardium. Particulars: Group III: TGA second method, then treated with and stored in formalin-containing solution, 21 days, average ± standard error. The class given is in vivo. The protocol: as §3, §4, §5
The subject of a further data set is A10 cells. Briefly: Relative biocompatibility of treated collagen surfaces, survival of A10 cells. The class given is cell-based. The following applies: A10 cells on denatured bovine type I collagen film treated with 0.2% (v/v) glutaraldehyde (24 hours, room temperature) or 0.1 molar TGA (24 hours, 37° C.), pH 7.4; about 24 hours of culturing. The protocol: Denatured (100° C., 1 hour) bovine type I collagen was applied as a film to duplicate culture surfaces. One surface was treated by contacting it with a solution comprising 0.2% (v/v) glutaraldehyde at pH 7.4 for 24 hours at room temperature (i.e. about 20° C.). Another surface was treated by contacting it with a solution comprising 0.1 molar TGA at pH 7.4 for 24 hours at 37° C. Both surfaces were rinsed extensively using phosphate-buffered saline (pH 7.4) in order to remove non-reacted compounds. A10 cells (obtained from the American Type Culture Collection; Gaithersburg, Md.) were provided to both surfaces, and survival of the cells was monitored. A high proportion (estimated at 30% or more of cells) which were provided to the glutaraldehyde-treated collagen surface appeared to be dead following about 24 hours of culturing, with significant amounts of cell debris observed.

[4] abbreviates: cusps cross-linked with 0.1 molar TGA in borate buffer pH 9.0, first method, subdermal in rats, 21 days.

Several values for one entry are separate records, joined by “and”; a condition that tells them apart may be missing. Equal values may be shown once.

In the case of `C1OC1CN(CC1CO1)CC1CO1` (stereo not drawn) [TGA, triglycidyl amine], the “pH of the stabilization reaction mixture” value is about 11.5 in data set [1] (first stabilization method, solution not changed, seven-day reaction period) and at most 8 in data set [1] (second method, reaction mixture solution replaced every 24 hours). Moreover, the “calcium content, average value ± standard error” value in the data set on porcine aortic cusps (D: cusps cross-linked with 0.1 molar TGA in HEPES buffer pH 7.4, first method, subdermal in rats, 21 days) is recorded as 4.13 ± 2.14 micrograms of calcium per milligram of tissue; with porcine aortic cusps (setting [4]), 1.769 micrograms of calcium per milligram of tissue. The “calcium content of individual tissue samples” value was 1.59 micrograms of calcium per milligram of tissue and 17.58 micrograms of calcium per milligram of tissue and 1.107 micrograms of calcium per milligram of tissue and 1.021 micrograms of calcium per milligram of tissue and 0.615 micrograms of calcium per milligram of tissue and 1.30 micrograms of calcium per milligram of tissue and 8.75 micrograms of calcium per milligram of tissue and 1.14 micrograms of calcium per milligram of tissue in the data set with porcine aortic cusps (D: cusps cross-linked with 0.1 molar TGA in HEPES buffer pH 7.4, first method, subdermal in rats, 21 days, listed as D); 1.318 micrograms of calcium per milligram of tissue and 0.811 micrograms of calcium per milligram of tissue and 1.31 micrograms of calcium per milligram of tissue and 2.13 micrograms of calcium per milligram of tissue and 1.20 micrograms of calcium per milligram of tissue and 3.85 micrograms of calcium per milligram of tissue with porcine aortic cusps (setting [4]). The “Calcium (micrograms/milligram of dry tissue)” value in the data set on porcine aortic cusps (porcine aortic cusps, Group III: TGA second method, then treated with and stored in formalin-containing solution, subdermal in rats, 21 days, average ± standard error) is listed as 18.07 ± 9.19 micrograms/milligram of dry ti; in data set [2] it was 21.17 ± 1.81 micrograms/milligram of dry ti; in the data set with bovine pericardium, 7.43 ± 3.47 micrograms/milligram of dry ti. Also, the “post-implantation calcification of the tissue, result in words” value in the data set on porcine aortic cusps (tissues treated by first and second stabilization methods, compared with glutaraldehyde treatment) was “inhibits post-implantation calcification of the tissue relative to glutaraldehyde treatment”. For the same compound, the “thermal shrinkage temperature (Ts)” value in data set [3] was “about 83 °C”. Also, in the data set with A10 cells, the “proportion of cells which appeared to be dead” value was “substantially undetectable proportion”.
For the compound `O=CCCCC=O` [glutaraldehyde, reference compound], the “calcium content, average value ± standard error” value with porcine aortic cusps (cusps cross-linked with 0.6% (v/v) glutaraldehyde in 0.05 molar HEPES pH 7.4, first method, subdermal in rats, 21 days) is 106.69 ± 9.81 micrograms of calcium per milligram of tissue. For the same compound, the “calcium content of individual tissue samples” value with porcine aortic cusps (cusps cross-linked with 0.6% (v/v) glutaraldehyde in 0.05 molar HEPES pH 7.4, first method, subdermal in rats, 21 days, listed as A) was 63.28 micrograms of calcium per milligram of tissue and 72.44 micrograms of calcium per milligram of tissue and 117.67 micrograms of calcium per milligram of tissue and 131.43 micrograms of calcium per milligram of tissue and 158.70 micrograms of calcium per milligram of tissue and 140.34 micrograms of calcium per milligram of tissue and 141.91 micrograms of calcium per milligram of tissue and 94.44 micrograms of calcium per milligram of tissue and 89.60 micrograms of calcium per milligram of tissue and 87.42 micrograms of calcium per milligram of tissue. The “proportion of cells which appeared to be dead” value in the data set with A10 cells was at least 30%.
